Reference: patent US20240148821A1, “PHARMACEUTICAL USE OF CYCLIC PEPTIDE COMPOUND” (CHUGAI SEIYAKU KABUSHIKI KAISHA, priority 2021, published 2024)
Numbered stars: 1 amine (or outer) side, 2 acyl side, 3 side chain; on linkers, the order of the positions; unused ones are H or OH. Bridge positions count the residues as written; N and C are the ends. Square brackets hold non-standard residues; d marks the D form. Peptide text beside a SMILES is read from it. * marks the point of attachment. hPhe(3,5-F2-4-CF3) = N[C@@H](CCc1cc(F)c(C(F)(F)F)c(F)c1)C(=O)O; hPhe(3-Cl-4-CF3) = N[C@@H](CCc1ccc(C(F)(F)F)c(Cl)c1)C(=O)O; NMePhe(4-CF3) = CN[C@@H](Cc1ccc(C(F)(F)F)cc1)C(=O)O; NMe3Pal(6-Me) = CN[C@@H](Cc1ccc(C)nc1)C(=O)O; NMeAbu(4,4,4-F3) = CN[C@@H](CC(F)(F)F)C(=O)O; NMePhe(4-Cl) = CN[C@@H](Cc1ccc(Cl)cc1)C(=O)O; NMePhe(4-Me) = CN[C@@H](Cc1ccc(C)cc1)C(=O)O; NMedβ3hAla = C[C@H](CC(=O)[*:2])N(C)[*:1]; NMeAla(cPent) = CN[C@@H](CC1CCCC1)C(=O)O; Phe(3-Br) = N[C@@H](Cc1cccc(Br)c1)C(=O)O; Phe(3-I) = N[C@@H](Cc1cccc(I)c1)C(=O)O; Pro(4,4-F2) = O=C(O)[C@@H]1CC(F)(F)CN1; NMeCha = CN[C@@H](CC1CCCCC1)C(=O)O; NMeChg = CN[C@H](C(=O)O)C1CCCCC1; NMeF = CN[C@@H](Cc1ccccc1)C(=O)O; NMeI = CC[C@H](C)[C@H](NC)C(=O)O; NMeD = CN[C@@H](CC(=O)O)C(=O)O; NMeL = CN[C@@H](CC(C)C)C(=O)O; NMeV = CN[C@H](C(=O)O)C(C)C; d(β3hA) = C[C@@H](N)CC(=O)O; NMeA = CN[C@@H](C)C(=O)O; NMeAib = CNC(C)(C)C(=O)O; Nle = CCCC[C@H](N)C(=O)O; Piperidide = C1CCN(*)CC1; Pyrrolidide = C1CCN(*)C1; Ac5c = NC1(C(=O)O)CCCC1; Aze = O=C(O)[C@@H]1CCN1; Sar = CNCC(=O)O

These compounds were tested on Human pancreatic cancer cell line AsPC-1 (G12D mutation Kras) (assay: AsPC-1 cell growth inhibition (AsPC-1 CGI)). Settings: read-out: AsPC-1 cell growth inhibition, 50% growth inhibitory concentration (IC50 value); 96 hours, CellTiter-Glo, values classified in ranges.
Format: cell-based
Method: Test compounds were serially dilated with dimethyl sulfoxide, and 200 nL was then dispensed to a U-bottom 96-well plate using Labcyte Echo. […] The cell suspension was dispensed to a. plate containing a test compound at 100 μL per well and incubated at 37° C. in a 5% carbon dioxide gas incubator. 96 hours later, 80 μL of CellTiter-Glo (Promega) was added to each well and fluorescence was measured.

`CC[C@H](C)[C@@H]1NC(=O)[C@H](C)N(C)C(=O)C[C@@H](C)NC(=O)[C@H](C(C)C)N(C)C(=O)C2(CCCC2)NC(=O)[C@@H]2CCCN2C(=O)[C@H](CCc2ccc(C(F)(F)F)c(Cl)c2)NC(=O)CN(C)C(=O)[C@H](Cc2ccccc2)N(C)C(=O)[C@@H]2CCCN2C(=O)CN(C)C1=O` [Compound 1778] (cyclo([Ac5c][NMeV][d(β3hA)][NMeA]I[Sar]P[NMeF][Sar][hPhe(3-Cl-4-CF3)]P)) and `CC[C@H](C)[C@@H]1NC(=O)[C@H](C)N(C)C(=O)C[C@@H](C)NC(=O)[C@H](C(C)C)N(C)C(=O)C2(CCCC2)NC(=O)[C@@H]2CCCN2C(=O)[C@H](CCc2ccc(C(F)(F)F)c(Cl)c2)NC(=O)[C@H]2CCCN2C(=O)[C@H](CC2CCCCC2)N(C)C(=O)[C@@H]2CCCN2C(=O)CN(C)C1=O` [Compound 666] (cyclo([Ac5c][NMeV][d(β3hA)][NMeA]I[Sar]P[NMeCha][dP][hPhe(3-Cl-4-CF3)]P)) cannot be ordered by IC50: > 500 nM for the first, > 500 nM for the second.

`CC[C@H](C)[C@@H]1NC(=O)[C@H](CC(C)C)N(C)C(=O)C[C@@H](C)N(C)C(=O)[C@H](CC(C)C)NC(=O)C(C)(C)N(C)C(=O)[C@H](CC(C)C)NC(=O)[C@H](CCc2ccc(C(F)(F)F)c(Cl)c2)NC(=O)CN(C)C(=O)[C@H](Cc2ccc(C(F)(F)F)cc2)N(C)C(=O)CN(C)C(=O)CN(C)C1=O` [Compound 1396] (cyclo(I[Sar][Sar][NMePhe(4-CF3)][Sar][hPhe(3-Cl-4-CF3)]L[NMeAib]L[NMedβ3hAla][NMeL])) and `CCCC[C@@H]1NC(=O)[C@H](Cc2cccc(Br)c2)NC(=O)CN(C)C(=O)[C@H](Cc2ccc(Cl)cc2)N(C)C(=O)[C@@H]2CCN2C(=O)[C@H](C)N(C)C(=O)[C@H]([C@@H](C)CC)NC(=O)[C@H](CC(C)C)N(C)C(=O)C[C@@H](C(=O)N2CCCCC2)N(C)C(=O)[C@H](CC(C)C)NC(=O)C(C)(C)N(C)C1=O` [Compound 1415] ([NMeL]I[NMeA][Aze][NMePhe(4-Cl)][Sar][Phe(3-Br)][Nle][NMeAib]L[NMeD]-Piperidide; lactam N-11) cannot be ordered by IC50: > 500 nM for the first, > 500 nM for the second.

`CC[C@H](C)[C@@H]1NC(=O)[C@H](CC(C)C)N(C)C(=O)C[C@@H](C)N(C)C(=O)[C@H](CC2CCCC2)N(C)C(=O)C2(CCCC2)NC(=O)[C@@H]2CCCN2C(=O)[C@H](CCc2ccc(C(F)(F)F)c(Cl)c2)NC(=O)CN(C)C(=O)[C@H](CC2CCCCC2)N(C)C(=O)CN(C)C(=O)CN(C)C1=O` [Compound 991] (cyclo([Ac5c][NMeAla(cPent)][NMedβ3hAla][NMeL]I[Sar][Sar][NMeCha][Sar][hPhe(3-Cl-4-CF3)]P)) and `CC[C@H](C)[C@@H]1NC(=O)[C@H](CC(C)C)N(C)C(=O)C[C@@H](C(=O)N2CCCCC2)N(C)C(=O)[C@H](C2CCCCC2)N(C)C(=O)C2(CCCC2)NC(=O)[C@H](Cc2ccc(C)nc2)N(C)C(=O)[C@H](CCc2ccc(C(F)(F)F)c(Cl)c2)NC(=O)CN(C)C(=O)[C@H](CC2CCCCC2)N(C)C(=O)[C@@H]2CCN2C(=O)CN(C)C1=O` [Compound 786] ([NMeL]I[Sar][Aze][NMeCha][Sar][hPhe(3-Cl-4-CF3)][NMe3Pal(6-Me)][Ac5c][NMeChg][NMeD]-Piperidide; lactam N-11) cannot be ordered by IC50: > 500 nM for the first, > 500 nM for the second.

First: CC[C@H](C)[C@@H]1NC(=O)[C@H](CC(C)C)N(C)C(=O)C[C@@H](C(=O)N2CCCCC2)N(C)C(=O)[C@H](CC(C)C)NC(=O)C(C)(C)N(C)C(=O)[C@H](Cc2ccc(OC)cc2)NC(=O)[C@H](Cc2cccc(I)c2)NC(=O)CN(C)C(=O)[C@H](CC2CCCCC2)N(C)C(=O)[C@@H]2CCN2C(=O)[C@H](C)N(C)C1=O [Compound 169] ([NMeL]I[NMeA][Aze][NMeCha][Sar][Phe(3-I)]Y(Me)[NMeAib]L[NMeD]-Piperidide; lactam N-11)
Second: CC[C@H](C)[C@@H]1NC(=O)[C@H](CC(C)C)N(C)C(=O)C[C@@H](C)N(C)C(=O)[C@H]([C@@H](C)CC)N(C)C(=O)C2(CCCC2)NC(=O)[C@@H]2CC(F)(F)CN2C(=O)[C@H](CCc2cc(F)c(C(F)(F)F)c(F)c2)NC(=O)CN(C)C(=O)[C@H](Cc2ccc(C(F)(F)F)cc2)N(C)C(=O)[C@@H]2CCN2C(=O)[C@H](C)N(C)C1=O [Compound 863] (cyclo([Ac5c][NMeI][NMedβ3hAla][NMeL]I[NMeA][Aze][NMePhe(4-CF3)][Sar][hPhe(3,5-F2-4-CF3)][Pro(4,4-F2)]))
The IC50 of the first is higher: > 500 nM for the first, ≤ 20 nM for the second. The second is the more potent here.

`CC[C@H](C)[C@@H]1NC(=O)[C@H](CC(F)(F)F)N(C)C(=O)C[C@@H](C(=O)N2CCCC2)N(C)C(=O)[C@H](C2CCCCC2)N(C)C(=O)C2(CCCC2)NC(=O)[C@@H]2CC(F)(F)CN2C(=O)[C@H](CCc2ccc(C(F)(F)F)c(Cl)c2)NC(=O)CN(C)C(=O)[C@H](Cc2ccc(C)cc2)N(C)C(=O)CN(C)C(=O)CN(C)C1=O` [Compound 1245] ([NMeAbu(4,4,4-F3)]I[Sar][Sar][NMePhe(4-Me)][Sar][hPhe(3-Cl-4-CF3)][Pro(4,4-F2)][Ac5c][NMeChg][NMeD]-Pyrrolidide; lactam N-11) was tested, and the IC50 was ≤ 20 nM.
